Source: US20260132132A1, “3A,4,5,6-TETRAHYDRO-1 H-PYRAZOLO[3,4-C]PYRIDIN-7(7AH)-ONE DERIVATIVES AS FACTOR XIIA INHIBITORS” (KALVISTA PHARMACEUTICALS LIMITED, priority 2022, published 2026)
pIC50: −log10 of the molar value.

Columns and labels:
[1] = biological target: T1, Human Factor XIIa (hFXIIa) (Homo sapiens, UniProt P00748); experiment: Determination of Human Factor XIIa (hFXIIa) inhibition, fluorogenic substrate IC50 assay; assay type: biochemical; conditions: fluorogenic substrate H-DPro-Phe-Arg-AFC at Km, 25° C., read-out: Human FXIIa IC50
T1 construct: purchased Enzyme Research Laboratories
T1 sequence (P00748 373-615 limits assumed): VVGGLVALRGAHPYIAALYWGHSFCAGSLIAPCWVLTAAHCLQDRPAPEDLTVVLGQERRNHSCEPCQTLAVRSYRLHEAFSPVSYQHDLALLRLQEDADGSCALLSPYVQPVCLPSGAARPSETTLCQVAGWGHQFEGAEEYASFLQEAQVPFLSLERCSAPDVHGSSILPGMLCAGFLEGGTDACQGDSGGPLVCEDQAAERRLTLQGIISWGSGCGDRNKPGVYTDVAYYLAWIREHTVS
T1 sequence (P00748 20-372 partner limits assumed): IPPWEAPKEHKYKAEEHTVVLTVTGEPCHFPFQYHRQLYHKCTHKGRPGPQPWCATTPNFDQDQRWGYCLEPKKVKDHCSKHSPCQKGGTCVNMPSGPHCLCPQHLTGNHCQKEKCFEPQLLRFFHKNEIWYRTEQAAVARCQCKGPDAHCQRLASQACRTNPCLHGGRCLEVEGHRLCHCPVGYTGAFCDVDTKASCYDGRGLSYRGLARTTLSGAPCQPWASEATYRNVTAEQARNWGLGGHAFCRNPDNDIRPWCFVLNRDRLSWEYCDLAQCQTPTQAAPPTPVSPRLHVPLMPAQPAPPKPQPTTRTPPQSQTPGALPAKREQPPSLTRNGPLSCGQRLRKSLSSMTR
Protocol: Determination of Human Factor XIIa (hFXIIa) inhibition
The Km for the cleavage of the substrate by hFXIIa was determined by standard transformation of the Michaelis-Menten equation, with subsequent inhibition assays performed at substrate Km concentration.

FXa = FXa (Homo sapiens, UniProt P00742); experiment: Related protease inhibition: FXa, fluorogenic substrate; assay type: biochemical; conditions: fluorogenic substrate at Km, 25° C.; H1-H3 = % activity at 40 μM
FXa, sequence (P00742 235-488 limits assumed): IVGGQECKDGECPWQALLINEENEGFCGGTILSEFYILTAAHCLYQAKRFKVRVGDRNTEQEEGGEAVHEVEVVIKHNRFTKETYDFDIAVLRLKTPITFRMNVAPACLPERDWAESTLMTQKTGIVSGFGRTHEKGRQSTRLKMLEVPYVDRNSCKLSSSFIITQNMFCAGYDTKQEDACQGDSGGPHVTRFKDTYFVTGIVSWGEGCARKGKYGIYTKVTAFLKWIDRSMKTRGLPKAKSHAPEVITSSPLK
FXa, sequence (P00742 41-179 partner limits assumed): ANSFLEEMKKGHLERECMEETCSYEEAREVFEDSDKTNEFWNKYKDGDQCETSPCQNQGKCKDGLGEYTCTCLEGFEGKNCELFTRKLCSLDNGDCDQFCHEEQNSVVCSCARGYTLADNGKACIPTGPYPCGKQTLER
Protocol: Human serine protease enzyme Plasma Kallikrein, KLK1, FXa, Plasmin, Thrombin and Trypsin were assayed for enzymatic activity using an appropriate fluorogenic substrate at Km concentration, FXIa at fixed substrate concentration of 100 μM and various concentrations of the test compound.

pIC50 [1]	pIC50 (FXa)	SMILES
6.00 to 6.52	< 4.40	Cc1cc(CNC(=O)c2nn(-c3cccc(C#N)c3)c3c2CCN(c2ccc4c(c2)C(=O)N(C)CC4)C3=O)nn1C [Example 2012, 1-(3-cyanophenyl)-N-((1,5-dimethyl-1H-pyrazol-3-yl)methyl)-6-(2-methyl-1-oxo-1,2,3,4-tetrahydroisoquinolin-7-yl)-7-oxo-4,5,6,7-tetrahydro-1H-pyrazolo[3,4-c]pyridine-3-carboxamide]
7.00 to 8.00	< 4.40	Cc1ccncc1CNC(=O)c1nn(-c2cccc(Cl)c2F)c2c1CCN(c1ccc3c(c1)CN(CCO)CC3)C2=O [Example 2002, 1-(3-Chloro-2-fluorophenyl)-6-(2-(2-hydroxyethyl)-1,2,3,4-tetrahydroisoquinolin-7-yl)-N-((4-methylpyridin-3-yl)methyl)-7-oxo-4,5,6,7-tetrahydro-1H-pyrazolo[3,4-c]pyridine-3-carboxamide]
7.00 to 8.00	4.40 to 5.00	Cc1ccncc1CNC(=O)c1nn(-c2cccc(Cl)c2)c2c(=O)n(-c3ccc4c(c3)C(=O)N(CCO)CC4)c(C)nc12 [Example 3017, 1-(3-chlorophenyl)-6-(2-(2-hydroxyethyl)-1-oxo-1,2,3,4-tetrahydroisoquinolin-7-yl)-5-methyl-N-((4-methylpyridin-3-yl)methyl)-7-oxo-6,7-dihydro-1H-pyrazolo[4,3-d]pyrimidine-3-carboxamide]
5.52 to 6.00	< 4.40	CCNC(=O)c1nn(-c2cccc(Cl)c2)c2c1CCN(c1cccc(-n3ccn(C)c3=O)c1)C2=O [Example 1399, 1-(3-chlorophenyl)-N-ethyl-6-(3-(3-methyl-2-oxo-2,3-dihydro-1H-imidazol-1-yl)phenyl)-7-oxo-4,5,6,7-tetrahydro-1H-pyrazolo[3,4-c]pyridine-3-carboxamide]
6.52 to 7.00	4.40 to 5.00	Cc1cn(C)nc1CNC(=O)c1nn(-c2cccc(Cl)c2)c2c1CCN(c1ccc3c(c1)C(=O)N(C)CC3)C2=O [Example 1225, 1-(3-chlorophenyl)-N-((1,4-dimethyl-1H-pyrazol-3-yl)methyl)-6-(2-methyl-1-oxo-1,2,3,4-tetrahydroisoquinolin-7-yl)-7-oxo-4,5,6,7-tetrahydro-1H-pyrazolo[3,4-c]pyridine-3-carboxamide]
6.00 to 6.52	< 4.40	Cc1cnnc(CNC(=O)c2nn(-c3cccc(Cl)c3)c3c2CCN(c2ccc4c(c2)C(=O)N(C)CC4)C3=O)c1 [Example 1282, 1-(3-chlorophenyl)-6-(2-methyl-1-oxo-1,2,3,4-tetrahydroisoquinolin-7-yl)-N-((5-methylpyridazin-3-yl)methyl)-7-oxo-4,5,6,7-tetrahydro-1H-pyrazolo[3,4-c]pyridine-3-carboxamide]
7.00 to 8.00	4.40 to 5.00	Cc1ccncc1CNC(=O)c1nn(-c2cccc(Cl)c2)c2c1CCN(c1ccc3c(c1)C(=O)N(CCO)CCC3)C2=O [Example 1306, 1-(3-chlorophenyl)-6-(2-(2-hydroxyethyl)-1-oxo-2,3,4,5-tetrahydro-1H-benzo[c]azepin-8-yl)-N-((4-methylpyridin-3-yl)methyl)-7-oxo-4,5,6,7-tetrahydro-1H-pyrazolo[3,4-c]pyridine-3-carboxamide]
6.52 to 7.00	< 4.40	Cc1ccc(-n2nc(C(=O)NCc3cnccc3C)c3c2C(=O)N(c2ccc4c(c2)CN(CCO)CC4)CC3)cc1Cl [Example 2007, 1-(3-chloro-4-methylphenyl)-6-(2-(2-hydroxyethyl)-1,2,3,4-tetrahydroisoquinolin-7-yl)-N-((4-methylpyridin-3-yl)methyl)-7-oxo-4,5,6,7-tetrahydro-1H-pyrazolo[3,4-c]pyridine-3-carboxamide]
7.00 to 8.00	4.40 to 5.00	Cc1ccncc1CNC(=O)c1nn(-c2cccc(Cl)c2)c2c1CCN(c1ccc3c(c1)CN(CCO)CC3)C2=O [Example 1110, 1-(3-chlorophenyl)-6-(2-(2-hydroxyethyl)-1,2,3,4-tetrahydroisoquinolin-7-yl)-N-((4-methylpyridin-3-yl)methyl)-7-oxo-4,5,6,7-tetrahydro-1H-pyrazolo[3,4-c]pyridine-3-carboxamide]
6.52 to 7.00	4.40 to 5.00	C[C@@H](NC(=O)c1nn(-c2cccc(Cl)c2)c2c1CCN(c1ccc3c(c1)CN(CCO)CC3)C2=O)c1cccnc1 [Example 1145, (R)-1-(3-chlorophenyl)-6-(2-(2-hydroxyethyl)-1,2,3,4-tetrahydroisoquinolin-7-yl)-7-oxo-N-(1-(pyridin-3-yl)ethyl)-4,5,6,7-tetrahydro-1H-pyrazolo[3,4-c]pyridine-3-carboxamide]
5.00 to 5.52	< 4.40	Cc1cc(CNC(=O)c2nn(-c3cccc(Cl)c3)c3c2CCN(c2ccc4c(c2)C(=O)N(C)[C@H](CO)CO4)C3=O)nn1C [Example 1351, (R)-1-(3-chlorophenyl)-N-((1,5-dimethyl-1H-pyrazol-3-yl)methyl)-6-(3-(hydroxymethyl)-4-methyl-5-oxo-2,3,4,5-tetrahydrobenzo[f][1,4]oxazepin-7-yl)-7-oxo-4,5,6,7-tetrahydro-1H-pyrazolo[3,4-c]pyridine-3-carboxamide]
6.52 to 7.00	< 4.40	COc1ccc(CNC(=O)c2nn(-c3cccc(Cl)c3)c3c2CCN(c2ccc4c(c2)C(=O)N(C)CC4)C3=O)cn1 [Example 1235, 1-(3-chlorophenyl)-N-((6-methoxypyridin-3-yl)methyl)-6-(2-methyl-1-oxo-1,2,3,4-tetrahydroisoquinolin-7-yl)-7-oxo-4,5,6,7-tetrahydro-1H-pyrazolo[3,4-c]pyridine-3-carboxamide]
6.52 to 7.00	< 4.40	O=C(NCC1CC1(F)F)c1nn(-c2cccc(Cl)c2)c2c1CCN(c1ccc3c(c1)CN(CCO)CC3)C2=O (centres unmarked) [Example 1142, 1-(3-chlorophenyl)-N-((2,2-difluorocyclopropyl)methyl)-6-(2-(2-hydroxyethyl)-1,2,3,4-tetrahydroisoquinolin-7-yl)-7-oxo-4,5,6,7-tetrahydro-1H-pyrazolo[3,4-c]pyridine-3-carboxamide]
6.52 to 7.00	< 4.40	O=C(NCc1ccnnc1)c1nn(-c2cccc(Cl)c2)c2c1CCN(c1ccc3c(c1)CN(CCO)CC3)C2=O [Example 1218, 1-(3-chlorophenyl)-6-(2-(2-hydroxyethyl)-1,2,3,4-tetrahydroisoquinolin-7-yl)-7-oxo-N-(pyridazin-4-ylmethyl)-4,5,6,7-tetrahydro-1H-pyrazolo[3,4-c]pyridine-3-carboxamide]
5.52 to 6.00	< 4.40	CCNC(=O)c1nn(-c2cccc(Cl)c2)c2c1CCN(c1ccc(OC)c(N3CCCC3=O)c1)C2=O [Example 1401, 1-(3-chlorophenyl)-N-ethyl-6-(4-methoxy-3-(2-oxopyrrolidin-1-yl)phenyl)-7-oxo-4,5,6,7-tetrahydro-1H-pyrazolo[3,4-c]pyridine-3-carboxamide]
6.00 to 6.52	< 4.00	O=C(N[C@H](CO)c1ccccc1)c1nn(-c2cccc(Cl)c2)c2c1CCN(c1cccc(CN3CCCCC3)c1)C2=O [Example 1008, (S)-1-(3-chlorophenyl)-N-(2-hydroxy-1-phenylethyl)-7-oxo-6-(3-(piperidin-1-ylmethyl)phenyl)-4,5,6,7-tetrahydro-1H-pyrazolo[3,4-c]pyridine-3-carboxamide]
